Reference: ChEMBL document CHEMBL5385859, “Research progress and challenges of TRPV1 channel modulators as a prospective therapy for diabetic neuropathic pain” (Eur J Med Chem, 2023)

Columns and labels:
[1] = biological target: T1, Transient receptor potential cation channel subfamily V member 1 (Homo sapiens, UniProt Q8NER1); experiment: Antagonist activity at TRPV1 (unknown origin)
[2] = Lipophilicity, […] of the compound at pH 6.5; type: physicochemical; settings: buffer
[3] = biological target: T1, Transient receptor potential cation channel subfamily V member 1; experiment: Agonist activity at human TRPV1 overexpressed in HEK293 cells incubated for 1 hr by Fluo-4 AM dye based microscopic analysis; type: cell-based
[4] = Lipophilicity, log P of the compound in PBS buffer; type: physicochemical
[5] = biological target: T1, Transient receptor potential cation channel subfamily V member 1; experiment: Antagonist activity at human recombinant TPRV1
[6] = biological target: T1, Transient receptor potential cation channel subfamily V member 1; experiment: Activation of human TRPV1 expressed in HEK293F cells; type: cell-based
[7] = biological target: T1, Transient receptor potential cation channel subfamily V member 1; experiment: Binding affinity to human TRPV1 assessed as inhibition constant by SPR analysis
[8] = species: Mus musculus; experiment: Analgesic activity in CCI-induced neuropathic pain in wild type C57BL/6 mouse model assessed as reduction in paw threshold pain measured after 2 hrs; type: functional
[9] = biological target: T1, Transient receptor potential cation channel subfamily V member 1; experiment: Inhibition of TRPV1 (unknown origin)
[10] = system: Mus musculus; experiment: Analgesic activity in CCI-induced neuropathic pain mouse model assessed as increase in mechanical paw withdrawal threshold at 5 mg/kg,ip administration measured after 30 mins by von frey test; type: functional, organism-based; settings: 0.5 h

T1 sequence (Q8NER1 whole entry): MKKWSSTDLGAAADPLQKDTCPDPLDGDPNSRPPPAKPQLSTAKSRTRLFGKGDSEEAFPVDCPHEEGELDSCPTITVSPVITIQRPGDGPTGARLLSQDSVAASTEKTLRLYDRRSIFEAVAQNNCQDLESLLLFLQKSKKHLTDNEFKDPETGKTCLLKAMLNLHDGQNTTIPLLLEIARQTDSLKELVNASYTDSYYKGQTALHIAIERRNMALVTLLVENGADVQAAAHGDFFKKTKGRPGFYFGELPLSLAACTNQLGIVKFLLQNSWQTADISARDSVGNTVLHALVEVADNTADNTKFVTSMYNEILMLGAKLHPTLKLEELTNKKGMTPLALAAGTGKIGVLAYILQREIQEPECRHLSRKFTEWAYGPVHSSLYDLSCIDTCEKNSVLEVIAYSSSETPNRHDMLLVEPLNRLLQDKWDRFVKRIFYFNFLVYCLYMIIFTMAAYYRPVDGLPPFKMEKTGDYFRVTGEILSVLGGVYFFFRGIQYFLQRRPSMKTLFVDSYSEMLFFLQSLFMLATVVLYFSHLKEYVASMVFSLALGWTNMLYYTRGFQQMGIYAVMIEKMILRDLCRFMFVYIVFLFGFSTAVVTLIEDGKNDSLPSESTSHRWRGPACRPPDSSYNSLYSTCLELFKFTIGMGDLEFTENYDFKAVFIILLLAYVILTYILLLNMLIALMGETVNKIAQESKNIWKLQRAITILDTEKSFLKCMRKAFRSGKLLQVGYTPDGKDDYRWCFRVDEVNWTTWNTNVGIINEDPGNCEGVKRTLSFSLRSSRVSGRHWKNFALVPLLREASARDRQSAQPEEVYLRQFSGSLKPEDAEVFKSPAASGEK

CC(C)(C)c1ccc(CNC(=S)NCc2ccc(NS(C)(=O)=O)cc2)cc1
IC50 [1]: 0.11 nM

CC(C)(O)c1ccccc1-c1ccc2[nH]c(/C=C/c3ccc(C(F)(F)F)cc3)nc2c1
logD [2]: 6.27

COc1cc(C/N=C(\S)NCc2ccc(Cl)cc2)cc(I)c1O
IC50 [1]: 106 nM

CC(C)(C)c1ccc(CNC(=S)NCc2ccc(NS(C)(=O)=O)c(F)c2)cc1
IC50 [1]: 8 nM

O=C(Nc1ccc(C(F)(F)F)cn1)N1CC=C(c2ncc([C@H](O)CO)cc2Cl)CC1
logD [2]: 2.11

O=C(Nc1ccc(C(F)(F)F)cc1)N1CC=C(c2ncc([C@H](O)CO)cc2Cl)CC1
IC50 [3]: 33.8 nM

CC(C)=CCCC1(C)CC1CO (centres undefined)
logP [4]: 2.5

CCCc1nc(C(F)(F)F)ccc1/C=C/C(=O)N[C@H](C)c1cc(F)c(NS(C)(=O)=O)c(F)c1
logD [2]: 3.67

C[C@H](NC(=O)Cn1cnc2ccc(F)c(F)c21)c1ccc(C(C)(C)C)cc1
IC50 [5]: 5 nM
logD [2]: 4.34

CC(C)c1nc2cc(O)ccc2c(=O)n1-c1ccc(C#N)cc1
logD [2]: 3.45

O=C(Nc1cccc2cnccc12)N1CCC[C@H]1CNc1ccc(Br)cc1
IC50 [6]: 84 nM

CC(C)(C)C(=O)OCC(CNC(=S)NCc1ccc(NS(C)(=O)=O)c(F)c1)Cc1ccccc1 (centres undefined)
Ki [7]: 7.8 nM

CC(C)(C)c1ccc2c(c1)CC[C@H]2NC(=O)Nc1cccc2[nH]ncc12 [ABT-102]
logD [2]: 4.59

CC(=O)Nc1nc2c(Oc3cc(-c4ccc(C(F)(F)F)cc4)ncn3)cccc2s1 [AMG-517]
Activity [8]: 760 nM

COc1cc(CNC(=O)CCCC/C=C/C(C)C)ccc1O [CAPSAICIN]
logP [4]: 3.74

Cc1ccc(N2c3cccc(C(=O)Nc4ccc(OCC(F)(F)F)nc4)c3OC[C@@H]2CO)nc1 [JTS-653]
IC50 [5]: 236 nM
logD [2]: 3.83

CC(C)c1cccc(C(C)C)c1O [PROPOFOL]
IC50 [9]: 5.05 nM
logP [4]: 4.15

C=C(C)[C@]12C[C@@H](C)[C@@]34O[C@](Cc5ccccc5)(O[C@@H]1[C@@H]3C=C(COC(=O)Cc1ccc(O)c(OC)c1)C[C@]1(O)C(=O)C(C)=C[C@@H]41)O2 [RESINIFERATOXIN]
EC50 [10]: 920 nM

O=C(Nc1ccccc1Br)N[C@@H]1CCN(c2ccc(C(F)(F)F)cn2)C1 [SB-705498]
Activity [8]: 8.8 nM
logD [2]: 3.98

CNCC1CCCCN1C(=O)Oc1ccc(CNC(=O)CCCC/C=C/C(C)C)cc1OC (centres undefined) [VOCACAPSAICIN]
logP [4]: 4.32
